Source: patent US11970473B2, “Nootkatone derivatives and methods of using the same” (Arkansas State University—Jonesboro, priority 2021, dated 2024)
Converted amounts (≈) assume the structure as drawn. Read-outs that look alike come from different tables or passages of the source.

Legend:
[1] = system: S. aureus ATCC 700699 (Sa99); experiment: Minimal inhibitory concentration (MIC) assay; format: cell-based; details: Staphylococcus aureus
Description: (§1) Minimal inhibitory concentration (MIC) assay The standard microdilution method recommended by the Clinical and Laboratory Standards Institute (CLSI) was used to determine the MIC of the antibiotics. The starting concentration of compounds was 50 μg/ml and 2-fold dilution was done down the 96 honeycomb well plate column. The MIC assay was conducted in triplicates.

[2] = system: S. aureus BAA-2312 (Sa12); experiment: Minimal inhibitory concentration (MIC) assay; format: cell-based; details: Staphylococcus aureus
Description: as §1

[3] = system: S. aureus ATCC 25923 (Sa23); experiment: Minimal inhibitory concentration (MIC) assay; format: cell-based; details: Staphylococcus aureus
Description: as §1

[4] = system: Enterococcus faecalis ATCC 29212 (Es12); experiment: Minimal inhibitory concentration (MIC) assay; format: cell-based
Description: as §1

[5] = system: Enterococcus faecium ATCC 700221 (Em21); experiment: Minimal inhibitory concentration (MIC) assay; format: cell-based; details: Enterococcus faecium
Description: as §1

[6] = system: S. aureus ATCC 33591 (Sa91); experiment: Minimal inhibitory concentration (MIC) assay; format: cell-based; details: Staphylococcus aureus
Description: as §1

[7] = system: S. aureus ATCC 33592 (Sa92); experiment: Minimal inhibitory concentration (MIC) assay; format: cell-based; details: Staphylococcus aureus
Description: as §1

[8] = system: S. epidermidis 700296 (Se); experiment: Minimal inhibitory concentration (MIC) assay; format: cell-based; details: Staphylococcus epidermidis, read-out: Antimicrobial activity (MIC) Se
Description: as §1

[9] = system: B. subtilis ATCC 6623 (Bs); experiment: Minimal inhibitory concentration (MIC) assay; format: cell-based; details: Bacillus subtilis
Description: as §1

[10] = system: S. aureus ATCC 700699 and S. aureus ATCC 33591; experiment: Time-Kill Assay; format: cell-based; details: 4×MIC
Description: Time kill assay for test antibiotics against S. aureus ATCC 700699 and S. aureus ATCC 33591 strains was conducted using procedures published previously.^26 Briefly, a log-phase bacterial culture was diluted to ˜5×10^6 CFU/ml in warm sterile CAMHB broth and was exposed to antibiotics at 4×MIC concentration then incubated at 35° C. Samples of 20 μl were taken every 2 hours, diluted 10 fold to 10^−5, and the 6×6 drop plate method was performed to determine viable CFU/ml after 18-24 hours of incubation at 35° C. Each antibiotic time-kill assay was conducted in triplicate.

MRSA persisters = experiment: Persister Cell Killing Assay; details: after 4 hrs exposure; 128×MIC
Description: A persister cell killing assay was performed following the methodology described by Kim et. al. with some modifications.^28 S. aureus strain was grown to stationary phase in CAMHB medium by shaking at 200 rpm overnight at 35° C. An aliquot of stationary phase culture (1 ml) was washed thrice with 1×PBS by centrifugation. After washing, the cells were diluted to ˜5×10^8 CFU/ml (confirmed by plate count). Diluted persister cells (2 ml) plus antibiotics at the desired concentration were incubated in sterile 10×75 mm plastic culture tubes at 35° C. with shaking at 200 rpm. At specific times, 400 μl aliquots were placed into microcentrifuge tubes and the cells washed and serially diluted in PBS. The diluted sample was plated on TSA agar plate with 5% sheep blood by the 6×6 drop plate method. Plates were incubated for 18-20 hours at 35° C., and then colonies were counted to calculate concentrations in CFU/ml. The experiment was performed in triplicates.

[11] = ATCC700699, S. aureus ATCC 700699, antibiotic-resistant strain, read-out: Antimicrobial activity (MIC) Sa99
[12] = BAA2312, S. aureus BAA-2312, antibiotic-resistant strain, read-out: Antimicrobial activity (MIC) Sa12
[13] = ATCC25923, S. aureus ATCC 25923, antibiotic susceptible strain, read-out: Antimicrobial activity (MIC) Sa23
[14] = ATCC29212, Enterococcus faecalis ATCC 29212, read-out: Antimicrobial activity (MIC) Es12
[15] = ATCC700221, Enterococcus faecium ATCC 700221, read-out: Antimicrobial activity (MIC) Em21
[16] = ATCC33591, S. aureus ATCC 33591, antibiotic-resistant strain, read-out: Antimicrobial activity (MIC) Sa91
[17] = ATCC33592, S. aureus ATCC 33592, antibiotic-resistant strain, read-out: Antimicrobial activity (MIC) Sa92
[18] = ATCC6623, B. subtilis ATCC 6623, read-out: Antimicrobial activity (MIC) Bs

| Molecule | MIC [1, 11] | MIC [2, 12] | MIC [3, 13] | MIC [4, 14] | MIC [5, 15] | MIC [6, 16] | MIC [7, 17] | MIC ([8]; S. epidermidis 700296) | MIC [9, 18] | eliminated bacteria at [10] | MIC ([1]; ATCC700699, read-out: Antimicrobial activity (MIC) Sa99) | MIC ([2]; BAA2312, read-out: Antimicrobial activity (MIC) Sa12) | MIC ([3]; ATCC25923, read-out: Antimicrobial activity (MIC) Sa23) | MIC ([4]; Enterococcus faecalis, ATCC29212, read-out: Antimicrobial activity (MIC) Es12) | MIC ([5]; ATCC700221, read-out: Antimicrobial activity (MIC) Em21) | MIC ([6]; ATCC33591, read-out: Antimicrobial activity (MIC) Sa91) | MIC ([7]; ATCC33592, read-out: Antimicrobial activity (MIC) Sa92) | MIC [8] | MIC ([9]; ATCC6623, read-out: Antimicrobial activity (MIC) Bs) | CFU count (MRSA persisters) |
| --- | --- | --- | --- | --- | --- | --- | --- | --- | --- | --- | --- | --- | --- | --- | --- | --- | --- | --- | --- | --- |
| C=C(C)[C@@H]1CC=C2c3sc(Nc4ccc(F)cc4)nc3C[C@@H](C)[C@]2(C)C1 [Compound 24, (5R,5aS,7R)—N-(4-fluorophenyl)-7-isopropenyl-5,5a-dimethyl-5,6,7,8-tetrahydro-4H-benzo[g][1,3]benzothiazol-2-amine] | > 100 µg/mL | > 100 µg/mL | 50 µg/mL (≈ 136 µM) | > 100 µg/mL | > 100 µg/mL | > 100 µg/mL | > 100 µg/mL | > 100 µg/mL | 100 µg/mL (≈ 271 µM) |  |  |  |  |  |  |  |  |  |  |  |
| C=C(C)[C@@H]1CC=C2c3sc(Nc4ccc(F)cc4F)nc3C[C@@H](C)[C@]2(C)C1 [Compound 25, (5R,5aS,7R)—N-(2,4-difluorophenyl)-7-isopropenyl-5,5a-dimethyl-5,6,7,8-tetrahydro-4H-benzo[g][1,3]benzothiazol-2-amine] | > 100 µg/mL | > 100 µg/mL | 100 µg/mL (≈ 259 µM) | > 100 µg/mL | > 100 µg/mL | > 100 µg/mL | > 100 µg/mL | > 100 µg/mL | > 100 µg/mL |  |  |  |  |  |  |  |  |  |  |  |
| C=C(C)[C@@H]1CC=C2c3sc(Nc4ccc(OC(F)(F)F)cc4)nc3C[C@@H](C)[C@]2(C)C1 [Compound 26, (5R,5aS,7R)-7-isopropenyl-5,5a-dimethyl-N-[4-(trifluoromethoxy)phenyl]-5,6,7,8-tetrahydro-4H-benzo[g][1,3]benzothiazol-2-amine] | > 100 µg/mL | > 100 µg/mL | 50 µg/mL (≈ 115 µM) | > 100 µg/mL | > 100 µg/mL | > 100 µg/mL | > 100 µg/mL | > 100 µg/mL | 100 µg/mL (≈ 230 µM) |  |  |  |  |  |  |  |  |  |  |  |
| CN[C@H](CC(C)C)C(=O)N[C@H]1C(=O)N[C@@H](CC(N)=O)C(=O)N[C@H]2C(=O)N[C@H]3C(=O)N[C@H](C(=O)N[C@H](C(=O)O)c4cc(O)cc(O)c4-c4cc3ccc4O)[C@H](O)c3ccc(c(Cl)c3)Oc3cc2cc(c3O[C@@H]2O[C@H](CO)[C@@H](O)[C@H](O)[C@H]2O[C@H]2C[C@](C)(N)[C@H](O)[C@H](C)O2)Oc2ccc(cc2Cl)[C@H]1O [VC, vancomycin, reference compound] |  |  |  |  |  |  |  |  |  | 10 h | 0.78 µg/mL (≈ 0.538 µM) | 0.78 µg/mL (≈ 0.538 µM) | 3.12 µg/mL (≈ 2.16 µM) | 3.12 µg/mL (≈ 2.15 µM) | > 100 µg/mL | 1.56 µg/mL (≈ 1.08 µM) | 1.56 µg/mL (≈ 1.08 µM) | 1.56 µg/mL (≈ 1.08 µM) | 0.39 µg/mL (≈ 0.269 µM) | 2.4×10^7 CFU |
| gentamycin [reference compound] |  |  |  |  |  |  |  |  |  |  |  |  |  |  |  |  |  |  |  | 2.2×10^8 CFU |
